Measured values from patent US20030203857A1, “Remedies” (priority 2000, published 2003).
Where “and” joins values, the source holds several entries; their conditions need not be identical. Identical values can stand only once.

Assays:
[1] = test system: mouse; type: in vivo; settings: orally, single dose of 1 g/1 kg
[2] = test system: HGF production in MRC-5 cells; assay: Enhancing activity for HGF production, MRC-5 cells, HGF ELISA of medium; type: cell-based, Human; settings: 24 hours, control = 100%
Procedure: MRC-5 cells (CCL 171: manufactured by DAINIPPON PHARMACEUTICAL CO., LTD., code. 02-021) were suspended in a DME medium containing 10% fetal bovine serum so as to have a concentration of 5×10^4 cells/cm^2. The suspension was put in a 48-well cell culture plate, and the cells were cultured at 37° C. in the presence of 5% CO2 gas for 24 hours. After culturing, the medium was exchanged. Thereafter, the sample was added, and the cells were cultured for another 24 hours. Subsequently, the medium was collected, and the amount of HGF in the medium was assayed using Quantikine Human Hepatocyte Growth Factor (HGF) ELISA Kit (manufactured by Funakoshi, code. RS-0641-00). […] Here, the addition of the sample was carried out by previously preparing aqueous solutions of the samples at various concentrations, and adding a given amount of each solution to the medium so as to have the above-mentioned final concentration. As the control, that with addition of a given amount of distilled water alone (final concentration of the sample: 0 μM) was used. The amount of HGF production was expressed as the relative value (%) when the HGF concentration in the cell culture medium of the control was defined as 100%. All experiments were carried out twice, and an average value was taken.

[3] = test system: NGF production in L-M cells; assay: Enhancing activity for NGF production, L-M cells, NGF enzyme immunoassay of medium; type: cell-based, murine; settings: control = 100%
Procedure: L-M cells (ATCC CCL-1.2) from murine fibroblasts were suspended in an M199 medium (manufactured by ICN) containing 0.5% bactopeptone (manufactured by Gibco BRL) so as to have a concentration of 1.5×10^5 cells/ml. The suspension was put in a 96-well plate in an amount of 0.1 ml each well, and the cells were aseptically cultured. After culturing the cells for 3 days, the medium was removed therefrom, and exchanged with an M199 medium containing 0.5% bovine serum albumin (manufactured by Sigma). […] After the termination of the culture, the NGF concentration in the culture medium was determined by an enzyme immunoassay method (NGF Emax Immuno Assay System, manufactured by Promega). Incidentally, in the case where the final concentration of the iron-treated chlorogenic acid was 0 μM, a given amount of an aqueous solution obtained by an iron treatment in the absence of chlorogenic acid was added to the medium. In addition, for the purpose of comparison, the activity of the chlorogenic acid without the iron treatment was assayed in the same manner. As described above, that with addition of a given amount of distilled water alone (final concentration of chlorogenic acid without the iron treatment: 0 μM) was used as the control. The amount of NGF production was expressed as the relative value (%) when the NGF concentration in the cell culture medium of the control was defined as 100%. The experiment was carried out twice, and an average value was taken. The enhancing activity for NGF production of chlorogenic acid was enhanced by the iron treatment.

Molecule | Death after single oral administration [1] | Amount of HGF Production ([2]; 1 μM) [%] | Amount of HGF Production ([2]; 10 μM) [%] | Amount of HGF Production ([2]; 100 μM) [%] | also measured
O=C(/C=C/c1ccc(O)c(O)c1)O[C@@H]1C[C@@](O)(C(=O)O)C[C@@H](O)[C@@H]1O [neochlorogenic acid, 5-caffeoyl-quinic acid] | no cases of death |  |  |  | 
O=C(O)/C=C/c1ccc(O)c(O)c1 [caffeic acid] | no cases of death | 85 | 117 | 196 | Amount of HGF Production ([2]; 1000 μM): 92%; Amount of NGF Production ([3]; 62.5 μM, 20 hours): 97.8%; Amount of NGF Production ([3]; 125 μM, 20 hours): 199.5%; Amount of NGF Production ([3]; 250 μM, 20 hours): 221.2% and 227.8%; Amount of NGF Production ([3]; 500 μM, 20 hours): 287.9%; Amount of NGF Production ([3]; 1000 μM, 20 hours): 269.3%
O=c1cc(-c2ccc(O)c(O)c2)oc2cc(O)c([C@@H]3O[C@H](CO)[C@@H](O)[C@H](O)[C@H]3O)c(O)c12 [isoorientin] | no cases of death |  |  |  | 
O=c1c(O)c(-c2ccc(O)c(O)c2)oc2cc(O)cc(O)c12 [quercetin] | no cases of death |  | 139 | 304 | 
O=C(/C=C/c1ccc(O)c(O)c1)O[C@@H]1C[C@](O)(C(=O)O)C[C@@H](O)[C@H]1O [chlorogenic acid] | no cases of death | 105 | 122 | 302 | Amount of HGF Production ([2]; 50 μM (as chlorogenic acid)): 148%; Amount of HGF Production ([2]; 500 μM): 479%; Amount of HGF Production ([2]; 1000 μM): 624%; Amount of NGF Production ([3]; 125 μM, 20 hours): 124.6%; Amount of NGF Production ([3]; 250 μM, 20 hours): 308.5% and 192.8%; Amount of NGF Production ([3]; 500 μM, 20 hours): 351.1% and 382.2% and 328.5% and 231.9%; Amount of NGF Production ([3]; 1000 μM, 20 hours): 256.2%
COC(=O)/C=C/c1ccc(O)c(O)c1 [Caffeic Acid Methyl Ester, caffeic acid methyl ester] |  |  |  |  | Amount of NGF Production ([3]; 0.0625 mg/ml): 824.4%; Amount of NGF Production ([3]; 0.125 mg/ml): 889.6%
COc1cc(O)c(CC=C(C)C)c2c1C(=O)CC(c1ccc(O)cc1)O2 (centres unmarked) [isoxanthohumol] |  |  |  |  | Amount of NGF Production ([3]; 50 μM, 20 hours): 110.7%; Amount of NGF Production ([3]; 100 μM, 20 hours): 121.4%; Amount of NGF Production ([3]; 200 μM, 20 hours): 198.0%
O=C(/C=C/c1ccc(O)c(O)c1)O[C@H]1[C@H](O)C[C@](O)(C(=O)O)C[C@H]1O [cryptochlorogenic acid, 4-caffeoyl-quinic acid] | no cases of death |  |  |  | 
O=c1c(O)c(-c2cc(O)c(O)c(O)c2)oc2cc(O)cc(O)c12 [myricetin] | no cases of death | 187 | 543 | 454 | 
O=C(O[C@@H]1Cc2c(O)cc(O)cc2O[C@@H]1c1cc(O)c(O)c(O)c1)c1cc(O)c(O)c(O)c1 [epigallocatechin gallate] | no cases of death | 175 | 160 |  | 
C=C(C)C(O)Cc1c(O)cc(OC)c(C(=O)/C=C/c2ccc(O)cc2)c1O (centres unmarked) [xanthohumol D] | no cases of death |  |  |  | 
CCOC(=O)/C=C/c1ccc(O)c(O)c1 [Caffeic Acid Ethyl Ester, caffeic acid ethyl ester] |  |  |  |  | Amount of NGF Production ([3]; 0.0625 mg/ml): 1279.1%
COc1cc2c(c(O)c1C(=O)/C=C/c1ccc(O)cc1)CC(O)C(C)(C)O2 (centres unmarked) [xanthohumol B] | no cases of death |  |  |  | 
3,5-dicaffeoylquinic acid |  | 142 | 206 | 290 | 
O=c1c(O)c(-c2ccc(O)cc2)oc2cc(O)cc(O)c12 [kaemferol] | no cases of death |  |  |  | 
O=C(O)c1cc(O)c(O)c(O)c1 [gallic acid] | no cases of death | 112 | 217 | 576 | 
